Experimental data as given in patent publication US8486964B2, “Fused pyrrolidino-cyclopropane derivatives as selective 11-beta-hydroxysteroid dehydrogenase type 1 inhibitors” (Merck Patent GmbH, priority 2009, dated 2013).

Experiments:
Format in all cases: biochemical
[1] = molecular target: human 11-β-HSD-1 (Homo sapiens (Human), UniProt P28845); assay: Inhibition of 11-β-HSD-1 enzyme assay (HTRF cortisol), human recombinant enzyme; conditions: human recombinant enzyme expressed in E. coli; cortisone/NADPH 200 nM/200 μM; 150 minutes at 37° C.
Method: (§1) Human recombinant 11-beta-hydroxysteroid dehydrogenase type 1 (11-β-HSD-1) enzyme was expressed in E. coli. Rat and mice liver microsome fractions were purchased from TEBU.
(§2) The 11-β-HSD-1 enzyme assay was carried out in 96 well microtiter plates in a total volume of 100 μl containing 30 mM Hepes buffer, pH 7.4 with 1 mM EDTA, substrate mixture cortisone/NADPH (200 nM/200 μM), G-6-P (1 mM) and inhibitors in serial dilutions. Reactions were initiated by addition of 10 μl 11-β-HSD-1 (3 μg) from E. coli, either as microsome fractions from rat and mice liver (2.5 μg). Following mixing, the plates were shaken for 150 minutes at 37° C. The reactions were terminated with 10 μl Acid-18beta glycyrrhetinic stop solution. Determinations of cortisol levels in 11-β-HSD-1 preparations were monitored by HTRF (HTRF cortisol assay from Cis bio international).

[2] = molecular target: mouse 11-β-HSD-1 (Mus musculus (Mouse), UniProt P50172); assay: Inhibition of 11-β-HSD-1 enzyme assay (HTRF cortisol), mice liver microsome fractions; conditions: cortisone/NADPH 200 nM/200 μM, 150 minutes at 37° C.
Method: as §1, §2

[3] = molecular target: rat 11-β-HSD-1 (Rattus norvegicus (Rat), UniProt P16232); assay: Inhibition of 11-β-HSD-1 enzyme assay (HTRF cortisol), rat liver microsome fractions; conditions: cortisone/NADPH 200 nM/200 μM, 150 minutes at 37° C.
Method: as §1, §2

rat 11-β-HSD-1, sequence (P16232 whole entry): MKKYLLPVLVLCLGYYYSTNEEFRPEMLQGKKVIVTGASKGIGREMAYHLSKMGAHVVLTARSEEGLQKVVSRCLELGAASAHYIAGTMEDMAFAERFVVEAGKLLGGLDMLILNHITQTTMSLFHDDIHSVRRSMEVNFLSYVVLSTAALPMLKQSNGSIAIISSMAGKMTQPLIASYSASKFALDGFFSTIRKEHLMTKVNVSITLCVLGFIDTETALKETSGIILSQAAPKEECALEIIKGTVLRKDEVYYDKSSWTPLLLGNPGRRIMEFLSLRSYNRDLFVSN
mouse 11-β-HSD-1, sequence (P50172 whole entry): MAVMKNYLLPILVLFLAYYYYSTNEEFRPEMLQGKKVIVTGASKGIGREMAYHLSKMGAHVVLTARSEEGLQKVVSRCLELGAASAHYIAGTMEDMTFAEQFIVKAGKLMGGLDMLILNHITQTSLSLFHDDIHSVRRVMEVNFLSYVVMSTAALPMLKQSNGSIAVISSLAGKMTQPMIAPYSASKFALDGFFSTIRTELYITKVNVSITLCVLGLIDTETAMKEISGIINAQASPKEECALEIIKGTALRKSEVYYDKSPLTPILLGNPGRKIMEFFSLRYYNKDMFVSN
human 11-β-HSD-1, sequence (P28845 whole entry): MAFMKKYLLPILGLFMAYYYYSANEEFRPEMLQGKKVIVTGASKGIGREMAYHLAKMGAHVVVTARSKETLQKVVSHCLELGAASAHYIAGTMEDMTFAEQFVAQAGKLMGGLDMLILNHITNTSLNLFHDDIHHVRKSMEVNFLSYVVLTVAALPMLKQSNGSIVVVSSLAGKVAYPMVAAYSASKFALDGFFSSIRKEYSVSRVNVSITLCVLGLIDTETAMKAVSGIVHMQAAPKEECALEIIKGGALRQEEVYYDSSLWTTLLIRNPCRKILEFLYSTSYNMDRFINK

- IC50 [1]: 0.022 µM
- IC50 [2]: 1.54 µM
- IC50 [3]: 1.29 µM
Compound: O=C(N1CCC2(c3c[nH]c4ncccc34)CC12)C1(c2ccc(Cl)cc2)CC1 (stereo not drawn) [Compound 2, 3-(2-{[1-(4-chlorophenyl)cyclopropyl]carbonyl}-2-azabicyclo[3.1.0]hex-5-yl)-1H-pyrrolo[2,3-b]pyridine]
